Entries after “also recorded” stand apart in the source; their conditions may differ.

Here are results for four compounds from patent US8299096B2, “Method for treating pulmonary diseases using rho kinase inhibitor compounds” (priority 2008, dated 2012).

The target of data set [1] is T1, Mnk2 (Homo sapiens, UniProt Q9HBH9).
T1 construct: purchased Upstate, Millipore Bioscience Division (KinaseProfiler service)
The experiment in a line: Kinase panel screen, Mnk2. The class given is biochemical. To be noted: 10 μM ATP. How it is done: (§1) Compounds of Formulae I and II were examined for activity against a selected panel of kinases using the KinaseProfiler™ enzyme profiling services (Upstate, Millipore Bioscience Division). Percent kinase activity at 10 μM and 1 μM test compound and 10 μM ATP was determined against 40 wild-type recombinant human kinases according to Upstate's standard protocol: ASK1, BTK, CSK, c-RAF, GCK, GSK3β, IKKα, IKKβ, IRAK1, IRAK4, JNK1α1, JNK2α2, JNK3, ERK1, ERK2, MAPKAP-K2, MAPKAP-K3, MEK1, MKK4, MKK6, MKK7β, Mnk2, MSK1, PAK3, PDK1, PRAK, ROCK1, Rsk2, SAPK2a, SAPK2b, SAPK3, SAPK4, SRPK1, SRPK2, Syk, TAK1, TBK1, PI3-Kβ, PI3-Kγ, PI3-Kδ.

Data set [2] concerns the target T2, IRAK4 (Homo sapiens, UniProt Q9NWZ3).
T2 construct: purchased Upstate, Millipore Bioscience Division (KinaseProfiler service)
T2 sequence (Q9NWZ3 1-460): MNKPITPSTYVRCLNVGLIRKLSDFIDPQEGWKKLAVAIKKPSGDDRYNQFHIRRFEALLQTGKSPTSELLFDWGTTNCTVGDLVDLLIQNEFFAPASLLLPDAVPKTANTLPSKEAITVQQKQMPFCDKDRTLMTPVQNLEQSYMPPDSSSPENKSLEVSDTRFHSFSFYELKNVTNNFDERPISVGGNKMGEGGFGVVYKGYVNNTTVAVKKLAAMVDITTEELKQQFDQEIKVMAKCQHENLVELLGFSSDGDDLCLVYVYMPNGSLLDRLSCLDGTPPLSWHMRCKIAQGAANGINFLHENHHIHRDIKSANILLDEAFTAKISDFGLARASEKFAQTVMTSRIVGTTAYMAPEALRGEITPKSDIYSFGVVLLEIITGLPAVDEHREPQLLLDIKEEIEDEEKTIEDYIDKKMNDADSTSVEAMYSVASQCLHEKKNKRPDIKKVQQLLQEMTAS
The experiment in a line: Kinase panel screen, IRAK4. The class given is biochemical. Conditions: 10 μM ATP. How it is done:
as §1

The test system of data set [3] is ovalbumin-sensitized mice. The experiment in a line: Prevention of airway hyperreactivity development, anti-inflammatory dosing paradigm (Penh). It is filed as in vivo, mouse. To be noted: intratracheal, once a day, days 27 to 30 (1.091) or 27 to 31.
The target of data set [4] is T3, GCK (Homo sapiens, UniProt Q12851).
T3 construct: purchased Upstate, Millipore Bioscience Division (KinaseProfiler service)
T3 sequence (Q12851 1-820): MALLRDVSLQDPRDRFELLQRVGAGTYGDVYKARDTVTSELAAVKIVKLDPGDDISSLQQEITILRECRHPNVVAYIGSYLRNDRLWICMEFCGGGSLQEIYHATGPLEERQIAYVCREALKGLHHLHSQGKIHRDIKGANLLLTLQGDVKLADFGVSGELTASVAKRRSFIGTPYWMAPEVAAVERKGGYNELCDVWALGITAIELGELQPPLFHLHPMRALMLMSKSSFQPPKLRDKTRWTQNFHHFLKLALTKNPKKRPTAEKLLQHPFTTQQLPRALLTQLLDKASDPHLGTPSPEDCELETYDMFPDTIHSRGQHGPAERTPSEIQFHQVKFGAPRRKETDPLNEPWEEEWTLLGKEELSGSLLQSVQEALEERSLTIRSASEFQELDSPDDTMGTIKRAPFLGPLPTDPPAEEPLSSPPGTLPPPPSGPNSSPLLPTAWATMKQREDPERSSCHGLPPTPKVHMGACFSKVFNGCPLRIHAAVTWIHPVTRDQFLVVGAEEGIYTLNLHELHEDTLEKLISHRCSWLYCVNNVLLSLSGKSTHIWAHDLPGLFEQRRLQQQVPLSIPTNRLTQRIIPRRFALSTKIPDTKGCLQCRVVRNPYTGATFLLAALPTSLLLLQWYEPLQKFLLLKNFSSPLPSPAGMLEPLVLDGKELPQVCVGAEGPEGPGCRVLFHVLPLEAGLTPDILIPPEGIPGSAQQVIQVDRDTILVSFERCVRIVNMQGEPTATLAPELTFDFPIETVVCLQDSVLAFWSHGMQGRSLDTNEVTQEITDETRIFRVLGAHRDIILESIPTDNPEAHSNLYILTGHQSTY
Briefly: Kinase panel screen, GCK. It is filed as biochemical. To be noted: 1 μM test compound, 10 μM ATP. As for the experimental part: as §1

Data set [5] concerns the target T4, IRAK1 (Homo sapiens, UniProt P51617).
T4 construct: purchased Upstate, Millipore Bioscience Division (KinaseProfiler service)
Briefly: Kinase panel screen, IRAK1. It is filed as biochemical. To be noted: 10 μM ATP. As for the experimental part:
as §1

Data set [6] concerns LPS-challenged mice. The experiment in a line: LPS-induced neutrophilia and cytokine production assay. Conditions: for IL-1β levels in BALF: intratracheal administration, LPS-challenged mice. The class given is in vivo, mouse.
Description: Male BALB/c mice, approximately 19 to 21 grams, were ordered from Charles River Laboratories (Raleigh, N.C.). All animals were challenged with aerosolized LPS (10 μg/ml) for 25 minutes on study day 0. LPS aerosol was generated using an Aerogen Aeroneb nebulizer and controller providing a flow of 400 μl/min and a particle size of 2-4 μm MMAD. Rolipram was administered i.p at 20 mg/kg. […] Four hours following LPS challenge, BALF was collected using a total of 3 ml of 0.9% sodium chloride containing 10% fetal calf serum. Total cell counts were determined using the Coulter Counter. For differential evaluations, BALF was centrifuged and cytospin slides prepared and stained with Hema3 stain. Manual leukocyte counts were then completed on 200 cells. The final concentration of individual leukocyte cell types per ml of BALF was determined by multiplication of the relative percentage of individual leukocytes with the total amount of cells/ml of BALF fluid. The concentration of IL-1β in the BALF samples was determined using commercially available Bio-plex kits (Bio-Rad). The analysis of cytokine levels was measured using the Bio-Plex 200 (Bio-Rad) system according to the manufacturer's instructions.
Data set [7] relates to ovalbumin-sensitized mice. The experiment in a line: Anti-inflammatory assay in ovalbumin-sensitized mouse model of asthma (BALF cells and cytokines). Conditions: dosed i.t. to day 30, anti-inflammatory dosing paradigm. The class given is in vivo. The source says:
Mouse model of asthma via ovalbumin sensitization was created as described in Example 5. The anti-inflammatory dosing paradigm (FIG. 4) was utilized to evaluate the anti-inflammatory effects of experimental compounds. The anti-inflammatory dosing paradigm consists of dosing the animals once a day starting on day 27 and finishing on either day 30 or 31 (1 hr prior to the aerosolized ovalbumin challenges on days 28 to 30) but not on day 32 when hyper-reactivity evaluation occurs.
Bronchoalveolar lavage fluid (BALF) was collected by infusing 3.0 ml of saline with 10% fetal calf serum into the lungs via the trachea and then withdrawing the fluid. The total amount of cells/ml of BALF fluid was determined via manual cell count on hemocytometer. The BALF was centrifuged, supernatant removed and analyzed for cytokine concentrations as described below, and cell pellet reconstituted in 500 μL of fluid. Cytospin slides were prepared from the cell pellet using 100 μL of fluid and spinning samples for 5 minutes at 5000 rpms in a cytospin centrifuge. Following Hema3 stain, relative percentages of individual leukocytes were determined on a 200 cell count for each sample. The final concentration of individual leukocyte cell types per ml of BALF was determined by multiplication of the relative percentage of individual leukocytes with the total amount of cells/ml of BALF fluid.
The concentrations of cytokines in the BALF samples were determined using commercially available Bio-plex kits (Bio-Rad) for the detection of mouse IL-5, IL-13, and Eotaxin. The analysis of cytokine levels was measured using the Bio-Plex 200 (Bio-Rad) system according to the manufacturer's instructions.

For data set [8], the system named is ovalbumin-sensitized mice. The experiment in a line: Bronchodilator assay in ovalbumin-sensitized mouse model of asthma (Penh). It is filed as in vivo. How it is done: Male BALB/c mice were ordered from Charles River Laboratories (Raleigh, N.C.). The animals were approximately 19 to 21 grams at time of receipt. Upon arrival, the animals were randomized into groups of five males per cage and assigned to a dosing group. Animals were quarantined for 7 days under test conditions. They were observed daily for general health status and ability to adapt to the water bottles.
Animals were sensitized on day 0 and 14 of study by an intraperitoneal injection with 20 μg of ovalbumin (ova) and 2.0 mg aluminum hydroxide (alum) which initiates the development of a specific T-helper (Th) cells type 2 resulting in asthmatic animals. One group of animals received an injection of saline to use as non-asthmatic control animals. All animals were challenged with aerosolized 1% ova once daily for 25 minutes on days 28, 29, and 30 (Zosky, et al. Respiratory Research, 2004; 5:15). Aerosol challenge consists of using an Aerogen Aeroneb nebulizer and controller with a particle size of 4-6 μm mass median aerodynamic diameter (MMAD) with a distribution of 400 μl per minute. This aerosol challenge is necessary to target the Th2-driven allergic inflammation in the lower airways.
The test compounds and the control vehicle were administered to animals on the day of airway hyperreactivity evaluation 30 minutes to 1 hour before the evaluation to determine the bronchodilator effects of the compounds according to the bronchodilator dosing paradigm (FIG. 3A). Compounds were administered p.o. (orally), i.p. (intraperitoneally) at 15 μMol/kg unless otherwise noted (Table 4). Alternatively, compounds were administered i.t. (intratracheally) at varying doses as shown (FIG. 3B). On day 32 of the experiment, airway hyperreactivity was evaluated by placing conscious, unrestrained animals in a whole body plethysmometer (Buxco Wilmington, N.C.) and exposing them to escalating doses of nebulized methacholine, a known bronchial constrictor which acts through the muscarinic receptors of the lungs, (doses: […]-50 mg/ml). Exposure to the methacholine doses consisted of a 3 minute period during which a nebulizer was aerosolizing the methacholine and an additional 3 minute period following the cessation of nebulization. Over this 6 minute period, the plethysmometer monitors and generates numerical values for all parameters of the breath pattern. Enhanced pause (Penh), a unitless index of airway hyperreactivity, is derived from the expiratory side of the respiratory waveform measured via the plethysmograph and is used as an indirect measure of airway resistance and hyperreactivity. […] Following the methacholine dose response, all animals were anesthetized, bled and euthanized.
Within each experiment, a mouse was given a single compound and exposed to increasing doses of methacholine [0 (baseline), 0.375, 0.75, 1.5, 3, 6, 12, 25, 50 mg/ml]. The Penh value at each of the dose levels of methacholine represents the 6-minute average response. Change from baseline (CFB) in Penh was calculated at each methacholine dose and the area under the curve (AUC) for these CFB values was calculated using the trapezoidal rule. This same approach was applied for each mouse across multiple experiments.
For statistical analyses, a linear mixed-effects model where the response was the log 10 transformed value of AUC described above was used. Data from equal experimental conditions across experiments performed on different days were pooled for statistical analysis and data reporting. The various compounds were compared adjusting for the log 10-transformed baseline value of Penh and the chamber (1 of 10) of the plethysmometer each mouse was contained in during an experiment. A random intercept for each experiment was assumed to account for possible similarities of the results obtained from a given experiment (i.e., as a “blocking effect”).
For Table 4 and Table 5, Penh values are reported as log 10 transformed AUC values. […]

For data set [9], the system named is rat tracheal rings pretreated with IL-1β and TNF-α or vehicle. The experiment in a line: Effect of inflammatory cytokines on tracheal relaxation. To be noted: 300 nM carbachol. How it is done:
Male Sprague-Dawley rats weighing 301-325 gm were sacrificed by asphyxiation in a CO2 chamber. Trachea were excised, cleaned of connective tissue and cut into cylindrical segments of 2-3 mm length. Tissues were treated for 18 hours at 37° C. in F12 media with penicillin-streptomycin and 0.1% BSA alone or with 10 ng/ml IL-1β and 100 ng/ml TNF-α. Tissues were then washed free of cytokines with Krebs buffer. Contractile tensions were measured using an isometric force transducer (Grass Instruments) as described for Example 3 and signals were analyzed using specialized software (Chart v5.5, ADInstruments). Tissues were treated with 300 nM carbachol for 10 to 15 minutes to induce a contractile response. Test Compounds were added cumulatively to the bath every 30 minutes and reductions in tension were recorded. Basal tension was subtracted from all values and data were reported as a percentage of the maximal carbachol-induced contraction. Data were fit to the Hill equation using GraphPad Prism v5 software.

Data set [10] is described as follows: Rat oral pharmacokinetics (plasma). The class given is in vivo.
Description: Plasma (EDTA K2 anticoagulant) was collected from male, cannulated, CD Sprague Dawley rats to determine the pharmacokinetics of formulations containing compound inhibitors of Rho kinase. Each animal was dosed orally with a 4 ml/kg solution or suspension of each test compound in 10 mM acetate buffered saline, pH 4.5 at a final concentration range of 20-30 μmol/kg. Blood was collected at 0.25, 0.5, 1, 2, 4, 6, 8, and 24 hours. Plasma samples were assayed for the concentration of the test compound using an on-line, solid phase extraction LC/MS/MS analysis system.
Samples were analyzed on a QSTAR Elite, hybrid quadrupole time-of-flight mass spectrometer (Applied Biosystems, Framingham, Mass.) coupled with a Symbiosis Pharma integrated, on-line SPE-HPLC system (Spark Holland Inc., Plainsboro, N.J.). Analyst QS 2.0 software was used for instrument control, data acquisition and processing. […] Mobile Phase A consisted of 0.1% ammonium hydroxide in water and Mobile Phase B consisted of 0.1% formic acid in acetonitrile. Pharmacokinetic analyses were performed using WinNonlin software version 5.2 (Pharsight Corporation, Mountain View, Calif.).
Data set [11] relates to A-10 rat thoracic aorta cells. Briefly: PDGF-stimulated smooth muscle cell proliferation assay (BrdU). The class given is cell-based. Conditions: 10 ng/mL PDGF, A-10 cells.
Description: Effects on cell proliferation were measured using a bromodeoxyuridine (BrdU) incorporation assay. […] Serum free media containing 0.1% BSA was added to the cells. 24 hours later the media was removed and replaced with warmed serum free media. […] Proliferation was then monitored using the BrdU Cell Proliferation Assay, HTS (Calbiochem cat. #HTS01). BrdU was allowed to incorporate into cells for 24 hours prior to the addition of fixative/denaturing solution and the fluorometric detection of incorporated BrdU using a BrdU antibody as per manufacturer's directions. Data are reported as a percent of the PDGF-stimulated BrdU incorporation.
The mark [12] stands for this setting: rat, oral, 20-30 μmol/kg, plasma, mean n = 3.

T1 sequence (Q9HBH9 whole entry): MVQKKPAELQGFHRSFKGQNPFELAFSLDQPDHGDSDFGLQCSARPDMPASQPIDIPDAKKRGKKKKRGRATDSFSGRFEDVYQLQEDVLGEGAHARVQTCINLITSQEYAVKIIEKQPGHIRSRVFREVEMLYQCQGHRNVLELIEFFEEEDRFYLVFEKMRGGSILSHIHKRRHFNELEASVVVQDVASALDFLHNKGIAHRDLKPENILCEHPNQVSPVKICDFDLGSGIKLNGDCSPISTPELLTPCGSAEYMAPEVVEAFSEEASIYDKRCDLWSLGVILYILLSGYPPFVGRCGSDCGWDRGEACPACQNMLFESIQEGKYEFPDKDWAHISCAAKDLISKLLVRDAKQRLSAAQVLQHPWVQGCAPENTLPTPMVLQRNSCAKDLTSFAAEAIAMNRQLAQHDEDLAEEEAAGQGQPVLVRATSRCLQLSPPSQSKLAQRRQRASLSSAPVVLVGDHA
T4 sequence (P51617 whole entry): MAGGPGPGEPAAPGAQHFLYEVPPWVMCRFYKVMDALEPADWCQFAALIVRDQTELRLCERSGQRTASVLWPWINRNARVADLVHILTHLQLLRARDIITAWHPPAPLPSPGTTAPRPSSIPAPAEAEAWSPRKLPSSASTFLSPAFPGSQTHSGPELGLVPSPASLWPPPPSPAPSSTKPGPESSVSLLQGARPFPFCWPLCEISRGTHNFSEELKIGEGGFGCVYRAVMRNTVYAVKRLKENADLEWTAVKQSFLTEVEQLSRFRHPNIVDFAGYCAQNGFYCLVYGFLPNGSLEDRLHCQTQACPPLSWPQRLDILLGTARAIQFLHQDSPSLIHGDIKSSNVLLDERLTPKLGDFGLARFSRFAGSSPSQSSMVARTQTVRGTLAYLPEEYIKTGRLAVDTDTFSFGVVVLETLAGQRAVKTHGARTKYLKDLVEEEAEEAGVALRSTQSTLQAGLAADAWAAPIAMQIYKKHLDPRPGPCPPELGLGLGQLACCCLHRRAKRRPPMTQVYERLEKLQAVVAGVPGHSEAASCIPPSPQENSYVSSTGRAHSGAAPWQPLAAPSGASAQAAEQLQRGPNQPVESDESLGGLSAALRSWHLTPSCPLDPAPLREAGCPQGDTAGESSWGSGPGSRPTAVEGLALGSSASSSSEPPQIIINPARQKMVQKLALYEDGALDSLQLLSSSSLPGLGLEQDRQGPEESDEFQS

`Cc1ccc(CN2CCC[C@@H](Nc3ccc4[nH]ncc4c3)C2)cc1OCCO` [Compound 1.161]: the “Percent inhibition, Mnk2” value came to 108% in data set [1] (1 μM test compound) and 106% in data set [1] (10 μM test compound). Further, the “Percent inhibition, IRAK4” value in data set [2] (1 μM test compound) is recorded as 96%; in data set [2] (10 μM test compound), 109%. In data set [3], the “Prevention of airway hyperreactivity” value is listed as “prevention of airway hyperreactivity”. For the same compound, the percent inhibition at 1 µM in data set [4] was 96%. Besides, the “Percent inhibition, IRAK1” value in data set [5] (1 μM test compound) is on record as 106%; in [5] (10 μM test compound), 99%.
As to `NC(=O)Cn1ccc2cc(CN3CC[C@@H](Nc4cccc5cnccc45)C3)ccc21` [Compound 2.059], in data set [6], the “IL-1β levels in BALF” value is recorded as “reduction”. Further, the “Percent inhibition, Mnk2” value in [1] (1 μM test compound) was determined as 49%; in data set [1] (10 μM test compound) it was 12%. Moreover, the “Percent inhibition, IRAK4” value was 63% in data set [2] (1 μM test compound) and 22% in data set [2] (10 μM test compound). Also, the “Prevention of airway hyperreactivity” value in [3] was “prevention of airway hyperreactivity”. In [4], this compound yielded a percent inhibition at 1 µM of 75%. Also, the “Percent inhibition, IRAK1” value in data set [5] (1 μM test compound) was 87%; in data set [5] (10 μM test compound) it was 30%.
Take `CS(=O)(=O)Nc1cccc(CN2CCC[C@H](Nc3ccc4[nH]ncc4c3)C2)c1` [Compound 1.091]: in data set [7], the “Eosinophils in BALF” value is on record as “reduction of eosinophils”. Also, the “Efficacy on neutrophilia compared to rolipram dosed i.p.” value in data set [6] (dosed intratracheally) is listed as “similar”. In data set [6], the “IL-1β levels in BALF” value is “reduction”. Also, the “LPS-induced pulmonary neutrophilia (BALF)” value in [6] (intratracheal dosing one hour prior to LPS challenge, mice) is “significant reduction; also recorded: dose-dependent inhibition”. Moreover, the “Reduction in airway hyperresponsiveness” value in [8] (i.p. route of administration, compared to oral dosing) is recorded as “enhanced reduction”. Besides, in [8] (intratracheal administration), the Bronchodilatory response entry is listed as “robust bronchodilatory response”. Also, in data set [8] (oral doses), the “Reduction in airway hyperresponsivness” value is “did not yield a significant reduction”. Further, the “Potency in cytokine-pretreated versus vehicle-pretreated tissues” value in data set [9] is listed as “slightly more potent in cytokine-pretreated tissues”. The “Relaxation of tracheal rings from vehicle-pretreated and cytokine-pretreated tissues” value in data set [9] (10 ng/ml IL-1β and 100 ng/ml TNF-α, 18 hours) is recorded as “fully efficacious”. For the same compound, the Oral bioavailability result in [10] (oral dosing) is “poor”. In data set [10] (setting [12]), the “AUC (0-last)” value is “below the level of quantification” and the Cmax entry is “below the level of quantification”.
Consider `CSc1ccc(CN2CC[C@@H](Nc3cccc4cnccc34)C2)cc1` [Compound 2.026], for which the “Percent of PDGF Induced Proliferation at 1 μM Avg” value in data set [11] (1 μM) was found to be 74.5%. Besides, in data set [11] (10 μM), the “Percent of PDGF Induced Proliferation at 10 μM Avg” value stood at 52.0%.
